Legend:
Type in all cases: in vivo
Parameters in all cases: scale not given here
Setaria viridis [1] = assay: Test Example 2: herbicidal effects in farmland soil treatment; conditions: 1000 g active ingredient per hectare, 21st day after treatment
Setaria viridis [2] = assay: Test Example 3: herbicidal effects in farmland foliar treatment; conditions: 1000 g active ingredient per hectare, 14th day after treatment
[3] = tested on: Echinochloa oryzicola Vasing; assay: Test Example 1: herbicidal effects in paddy field soil treatment; conditions: 1000 g active ingredient per hectare, 21st day after treatment
Method: (§1) 100-cm^2 plastic pots were filled with paddy field soil. After puddling and leveling, seeds of Echinochloa oryzicola Vasing, Monochoria vaginalis (Burm. f.) Presl var. plantaginea (Roxb.) Solms-Laub., and Scirpus juncoides Roxb. var. ohwianus. T. Koyama were sowed in the pots, and the soil was waterlogged to a water depth of 3 cm. On the next day, a wettable powder formulation prepared according to Formulation Example 1 was diluted with water, and the dilution was added dropwise onto the water surface. The amount of application was an amount equivalent to 1000 g of the active ingredient per hectare. Thereafter, the plants were grown in a greenhouse, and on the 21st day after the treatment, the herbicidal effects were investigated according to the criteria described in Table 71.
(§2) In addition, comparative compound A, comparative compound B, comparative compound C, and comparative compound D in the tables represent Compound Nos. 70, 34, 32, and 31, respectively, as described in EP-283261. The structural formulas of these compounds are presented below.

[4] = tested on: Scirpus juncoides Roxb. var. ohwianus. T. Koyama; assay: as above; conditions: 1000 g active ingredient per hectare, 21st day after treatment
Method: as §1, §2

[5] = tested on: Monochoria vaginalis (Burm. f.) Presl var. plantaginea (Roxb.) Solms-Laub.; assay: as above; conditions: 1000 g active ingredient per hectare, 21st day after treatment
Method: as §1, §2

Amaranthus retroflexus [6] = assay: Test Example 2: herbicidal effects in farmland soil treatment; conditions: 1000 g active ingredient per hectare, 21st day after treatment
Method: (§3) 80-cm^2 plastic pots were filled with farmland soil. Seeds of Abutilon theophrasti medicus and Amaranthus retroflexus were sowed in the pots, and soil was covered. A wettable powder formulation prepared according to Formulation Example 1 was diluted with water, and the dilution was uniformly sprayed on the soil surface with a small sprayer, in an amount equivalent to 1000 liters per hectare, such that 1000 g of the active ingredient was applied per hectare. Thereafter, the plants were grown in a greenhouse, and on the 21st day after the treatment, the herbicidal effects were investigated according to the criteria described in Table 71 shown above.

[7] = tested on: Abutilon theophrasti medicus; assay: as above; conditions: 1000 g active ingredient per hectare, 21st day after treatment
Method: as §3

Echinochloa crus-galli = assay: as above; conditions: 1000 g active ingredient per hectare, 21st day after treatment
Amaranthus retroflexus [8] = assay: Test Example 3: herbicidal effects in farmland foliar treatment; conditions: 1000 g active ingredient per hectare, 14th day after treatment
Method: (§4) 80-cm^2 plastic pots were filled with farmland soil. Seeds of Echinochloa crus-galli (L.) P. Beauv. var. crus-galli, Abutilon theophrasti medicus, and Amaranthus retroflexus were sowed in the pots, and the plants were grown for two weeks in a greenhouse. A wettable powder formulation prepared according to Formulation Example 1 was diluted with water, and the dilution was applied by foliar treatment by spraying with a small sprayer over the whole plant from the upper part, in an amount equivalent to 1000 liters per hectare, such that 1000 g of the active ingredient was applied per hectare. Thereafter, the plants were grown in a greenhouse, and on the 14th day after the treatment, the herbicidal effects were investigated according to the criteria described in Table 71 shown above.

[9] = tested on: Echinochloa crus-galli (L.) P. Beauv. var. crus-galli; assay: as above; conditions: 1000 g active ingredient per hectare, 14th day after treatment
Method: as §4

[10] = tested on: Abutilon theophrasti medicus; assay: as above; conditions: 1000 g active ingredient per hectare, 14th day after treatment
Method: as §4

Row | Compound | Herbicidal effect index, Setaria viridis (Setaria viridis [1]) | Herbicidal effect index, Setaria viridis (Setaria viridis [2]) | Herbicidal effect index, Echinochloa oryzicola [3] | Herbicidal effect index, Scirpus juncoides [4] | Herbicidal effect index, Monochoria vaginalis [5] | Herbicidal effect index, Amaranthus retroflexus (Amaranthus retroflexus [6]) | Herbicidal effect index, Abutilon thophrasti [7] | Herbicidal effect index, Echinochloa crus-galli (Echinochloa crus-galli) | Herbicidal effect index, Amaranthus retroflexus (Amaranthus retroflexus [8]) | Herbicidal effect index, Echinochloa crus-galli [9] | Herbicidal effect index, Abutilon theoprasti [10]
1 | Cc1ccc2cc(C(=O)C3=C(O)CCCC3=O)c(=O)n(-c3ccccc3)c2n1 [II-123] | 5 | 5 | 5 | 5 | 5 | 5 | 5 | 5 | 5 | 5 | 5
2 | COc1cccc(-n2c(=O)c(C(=O)C3=C(O)CCCC3=O)cc3cccnc32)c1 [II-55] | 5 | 5 | 5 | 5 | 5 | 5 | 5 | 5 | 5 | 5 | 5
3 | Cn1c(=O)c(C(=O)C2=C(O)CCCC2=O)cc2ccc(C(F)F)nc21 [II-131] | 3 | 4 | 5 | 5 | 5 | 5 | 5 | 4 | 5 | 4 | 5
4 | CC1(C)CC(=O)C(C(=O)c2cnc3ccccc3n2)=C(O)C1 [Comparative compound C, reference compound] | 0 | 0 | 1 | 1 | 2 | 3 | 0 | 2 | 0 | 0 | 4
5 | O=C1CCCC(O)=C1C(=O)c1cnccn1 [Comparative compound A, reference compound] | 1 | 0 | 2 | 0 | 0 | 0 | 1 | 5 | 1 | 0 | 2
6 | O=C1CCCC(O)=C1C(=O)c1ccc2ccccc2n1 [Comparative compound B, reference compound] | 0 | 0 | 0 | 0 | 0 | 2 | 2 | 3 | 1 | 0 | 5
7 | CCOCCn1c(=O)c(C(=O)C2=C(O)CCCC2=O)cc2cccnc21 [II-15] | 5 | 5 | 5 | 5 | 5 | 5 | 5 | 5 | 5 | 5 | 5
8 | COc1ccccc1-n1c(=O)c(C(=O)C2=C(O)CCCC2=O)cc2cccnc21 [II-54] | 5 | 5 | 5 | 5 | 5 | 5 | 5 | 5 | 5 | 5 | 5
9 | O=C1CCCC(O)=C1C(=O)c1cc2ccc(C(F)(F)Cl)nc2n(-c2ccccc2)c1=O [II-143] | 5 | 5 | 5 | 5 | 5 | 5 | 5 | 5 | 5 | 5 | 5
10 | O=C1CCCC(O)=C1C(=O)c1cc2ccc(C(F)F)nc2n(-c2ccccc2)c1=O [II-133] | 5 | 5 | 5 | 5 | 5 | 5 | 5 | 5 | 5 | 5 | 5
11 | Cc1ccccc1-n1c(=O)c(C(=O)C2=C(O)CCCC2=O)cc2cccnc21 [II-48] | 5 | 5 | 5 | 5 | 5 | 5 | 4 | 5 | 5 | 5 | 5

— patent publication US8334236B2, “Ring-fused 2-pyridone derivatives and herbicides” (Kumiai Chemical Industry Co., Ltd., priority 2009, dated 2012)
